Data published in patent publication US20040087604A1, “Hetero-tricyclic compounds having substituted amino groups” (priority 2001, published 2004).

Test system: IgE production against ovalbumin (OVA)
Test: Suppressive effect on the IgE production against ovalbumin (OVA); anti-OVA IgE antibody titer (PCA titer)
Format: in vivo
Conditions: BALB/c mice immunized with OVA; oral dose 40 mg/kg for 10 days; titer = n where serum PCA-positive till 2^n dilution
Protocol: Suppressive Effect on the IgE Production Against Ovalbumin (OVA)
BALB/c mice (female, 8-10 weeks old) and Wistar rats (female, 8-10 weeks old) which were bought from Japan SLC, Inc. (Shizuoka) were used.
BALB/c mice were immunized by an intraperitoneal administration of 0.2 ml suspension of 2 μg of ovalbumin (OVA) and 2 mg of aluminium hydroxide gel in physiological saline. After 10 days, blood was collected from hearts, then sera were separated and stocked at −40° C. till the measurement of IgE antibody titer.
After the compound of the present invention was dissolved or suspended in N,N-dimethylacetoamide, the mixture was diluted 20 times with miglyol 812 neutral oil. The obtained solution was orally administered to mice at 0.1 ml per mouse (dose 40 mg/kg). The administration was continued for 10 days from the immunizing day to the day before the blood collection.
4) Mesurement of Anti-OVA IgE Antibody Titer (PCA Titer)
The obtained mouse serum was 2-fold diluted with physiological saline, then each 50 μl the solution was intradermally injected at dorsal skin of Wistar rats which previously hair cut. […] The rats were sacrified 30 minutes later and the highest dilution giving bluing with a diameter of 5 mm or more was recorded as the PCA titer. […]

## Cc1c(C)c(-c2ccc(NC(C)C)nc2)c(C)c(C)c1-c1ccc(NC(C)C)nc1 [Compound 169]
  PCA (anti-OVA IgE antibody titer, PCA titer): <0
